Experimental data taken from US20110236874A1, “METHOD FOR FORMATION OF RENAL TUBULES” (priority 2008, published 2011).
“Also recorded” adds a separate entry of the source.

Assays:
[1] = tested on: primary human renal proximal tubule cells (HPTCs); assay: TGF-β1 treatment of confluent HPTC monolayers in complete HPTC medium; format: cell-based
Method: Cell culture: Different batches of HPTCs were obtained from ScienCell Research Laboratories (Carlsbad, Calif., USA). Cells were cultivated in basal epithelial cell medium supplemented with 2% fetal bovine serum (FBS) and 1% epithelial cell growth supplement (ScienCell Research Laboratories). In some experiments, TGF-β1 (R&D Systems, Minneapolis, Minn., USA) was added at a concentration of 10 ng/ml after monolayer formation.
FIG. 17: Growth factor expression and effects of TGF-β1. (A) The expression levels of TGF-β1, α-SMA, LIF, FGF2, KGF and HGF are monitored over a period of 4 weeks. […] Panels B-D show the cells treated for 3 days with 10 ng/ml TGF-β1 after monolayer formation. […] Scale bar: 500
A fourth experimental series was performed with our HPTC medium containing all supplements including FBS. HPTCs were grown to confluency and then treated with TGF-β1 (10 ng/ml; same concentration as used for the rabbit cells). After three days massive cords and aggregates of cells with an elongated, myofibroblastic morphology had formed in 6/6 wells. Although in the complete HPTC medium with FBS, cords and cell aggregates also form without the addition of extra TGF-β1, such structures formed more consistently after addition of TGF-β1. […]

[2] = tested on: primary human renal proximal tubule cells (HPTCs); assay: TGF-β1 treatment of confluent HPTC patches in Humes basal medium; format: cell-based; details: 10 ng/ml TGF-β1 on confluent patches in Humes basal medium
Method: The Humes et al. method used primary rabbit proximal tubule cells. The references indicate three factors are necessary in the growth medium for 2D tubulogenesis: (i) transforming growth factor (TGF)-β1; (ii) epidermal growth factor (EGF); and all-trans retinoic acid (RA). The method involves cultivation of primary rabbit renal proximal tubule cells in the following medium: Dulbecco's modified Eagle's:Ham's F-12 media (1:1, v/v) containing L-glutamine, penicillin, streptomycin, 50 nM hydrocortisone, 5 μg/ml of insulin, and 5 μg/ml of transferrin, referred to herein as Humes basal medium.
In a second set of experiments cells were again cultivated in Humes basal medium. In accordance with the previous results, massive cell death occurred although some cells survived and formed some confluent patches after 2 weeks. By this time cell growth was very slow and overall confluency could not be achieved. However, the confluent patches were treated with 10 ng/ml TGF-β1 in accordance with the Humes et al. method.

[3] = tested on: primary rabbit renal proximal tubule cells; details: added to confluent rabbit cell cultures for at least 72 hours; TGF-β1 10 ng/ml, EGF 1 nM, RA 0.1 μM; cited from earlier work
[4] = tested on: Human proximal tubules formed on 2D solid surfaces; assay: Transport assays with fluorescent substrates in tubules formed on 2D solid surfaces; format: cell-based; details: 20 h incubation, lucifer yellow 80 μM, rhodamine 123 10 μM, 5,6-carboxyfluorescein 5 μM, BODIPY FL verapamil 5 μM
Method: Transport assays: Tubules formed 1-2 weeks after seeding were cultivated in phenol red-free medium supplemented with 80 μM of lucifer yellow (Sigma Aldrich Chemical Corp, Singapore), 10 μM of rhodamine 123 (Invitrogen, Singapore), 5 μM of 5,6-carboxydichlorofluorescein diacetate (5,6-carboxyfluorescein) (Invitrogen) or 5 μM of BODIPY FL verapmil (Invitrogen). Tubules were fixed after 20 h of incubation, and subsequently stained with 4′,6′-diamidino-2′-phenylindole (DAPI).
FIG. 11: Organic anion transport. Human proximal tubules formed on 2D solid surfaces were incubated for 20 h with the organic anions lucifer yellow (A, B; green), rhodamine 123 (C; red), 5,6-carboxyfluorescein (D; green) and BODIPY FL verapamil (F; green). Tubules are fixed before imaging, and the cell nuclei are counterstained with DAPI (blue). […] The arrowhead points to a region that is enlarged in the inset. The DAPI-stained nuclei of the outer cell layer are on the right in the inset. […] Scale bars: 100 μm.

Molecule | structures formed from confluent monolayer [3] | localisation of the fluorescent substrate after incubation (transport across tubular epithelium) [4] | further results
TGF-β1: transforming growth factor β1 (R&D Systems), 10 ng/ml | formation of solid aggregates of adherent cells (no lumen) | – | wells with massive cords and aggregates of cells of myofibroblastic morphology ([1]; 10 ng/ml TGF-β1, after three days, complete HPTC medium with FBS): 6/6; effect on the monolayer ([1]; 10 ng/ml TGF-β1 for 3 days after monolayer formation): induces rearrangements leading to the formation of condensed stripes of cells and areas devoid of cells; also recorded: rearrangement of the monolayer into a condensed stripe of cells and to the formation of cell aggregates; effect on the monolayer, cord and tubule formation [2]: no obvious effect on the monolayer and no cord and tubule formation was observed
lucifer yellow | – | the lumen is strongly labeled; also recorded: became enriched in the tubular lumen | –
5,6-carboxydichlorofluorescein diacetate [5,6-carboxyfluorescein] | – | enriched in the tubular interior; also recorded: became enriched in the tubular lumen | –
rhodamine 123 | – | became enriched in the tubular lumen | localisation of the fluorescent substrate after incubation (transport across tubular epithelium) ([4]; listed as Rhodamine 123): enriched in the tubular lumen
BODIPY FL verapamil | – | enriched in the cytoplasm of tubular and monolayer cells | localisation of the fluorescent substrate after incubation (transport across tubular epithelium) ([4]; listed as BOPIPY FL verapamil): became enriched within the cells
CC1=C(/C=C/C(C)=C/C=C/C(C)=C/C(=O)O)C(C)(C)CCC1 [RA, all-trans retinoic acid] | no dramatic effects on the monolayer | – | –
EGF: epidermal growth factor (NSDSECPLSHDGYCLHDGVCMYIEALDKYACNCVVGYIGERCQYRDLKWWELR; UniProt P01133 971-1023, looked up) | no dramatic effects on the monolayer | – | –
